According to patent US11401233B1, “Pleuromutilin salicylic acid ester with antibacterial activity and a method of preparing the same” (SHAANXI UNIVERSITY OF SCIENCE AND TECHNOLOGY, priority 2021, dated 2022):

How the values were obtained:
[1] = system: multi-resistant Staphylococcus aureus 575 (MRSA-575); test: Paper diffusion method drug sensitivity test, MRSA-575; type: cell-based; conditions: for Zone of inhibition: MRSA-575, 30 μg/tablet paper disc 6.35 mm, LB plate, 37° C., 24 h, ≥17 mm sensitive, 15-16 mm intermediary, ≤14 mm drug resistance
Procedure: (§1) The antimicrobial efficacy was determined by a paper diffusion method drug sensitivity test.
(§2) E Experimental strains: multi-resistant Staphylococcus aureus 206 (MRSA-206), multi-resistant Staphylococcus aureus 575 (MRSA-575), multi-resistant Staphylococcus aureus 596 (MRSA-596). The experimental strain was identified by Huashan Hospital Affiliated to Fudan University (Institute of Antibiotic of Fudan University).
(§3) Drug sensitive paper: The drug sensitive paper was a special drug sensitive paper with a diameter of 6.35 mm and a water absorption of 0.02 mL. The control drug was vancomycin (30 μg/tablet); the test drugs were pleuromulin (30 μg/tablet), salicylic acid (30 μg/tablet) and pleuromulin salicylic acid ester (30 μg/tablet).
(§4) Reagents: LB agar medium, LA broth medium, 0.5% DMSO solution.
(§5) T The experimental strains were inoculated in non-selective medium and placed in air at 37° C. for 24 h. A single colony that grows well and inoculate it into broth medium was incubate at 35° C.±2° C. for 6 hours, and LA broth medium was used to calibrate the concentration of the bacterial solution to 0.5 Mie turbidimetric tube (1.5×10^8 CFU/mL). A bacterial suspension was obtained.
(§6) LB dry powder was weighed, sterilized at 103.4 Kpa, 121.3° C. high-pressure steam for 15 min, and then placed it in a 40° C.-50° C. water bath. A sterile empty plate (inner diameter 9 cm) was placed on the surface of the ultra-clean table water table, and […] to the plate. The thickness of each plate was 3 mm to 4 mm. After the plate was cooled at room temperature, it was stored in the refrigerator at 2° C.-8° C. A sterile cotton swab was used to dip the bacterial solution and ti evenly coat the surface of the LB plate 3 times. After inoculation of the bacterial suspension, the LB plate was dried at room temperature for 3 min to 5 min. Sterile forceps were used to closely attach the antibacterial drug paper to the dish. The dish was put upside down and placed in a 37° C. incubator for 24 h. The results were observed by measuring the diameter. Taking 0.5% DMSO solution as a negative control, the antibacterial activity is expressed by the diameter of the inhibition zone. The inhibition zone≥17 mm, sensitive; the inhibition zone of 15 mm-16 mm, intermediary; the inhibition zone≤14 mm, drug resistance.

drug-resistant bacteria = test: Paper diffusion method drug sensitivity test, overall statement on drug-resistant bacteria; type: cell-based, Staphylococcus aureus; conditions: drug-resistant bacteria in general (strains of Table 1); 30 μg/tablet
Procedure: as §1, §2, §3, §4, §5
as §6, with “Taking 0.5% DMSO solution as a negative control, the antibacterial activity is expressed by the diameter of the inhibition zone. The inhibition zone≥17 mm, sensitive; the inhibition zone of 15 mm-16 mm, intermediary; the inhibition zone≤14 mm, drug resistance.” left out

MRSA-171 = test: Paper diffusion method drug sensitivity test, MRSA-171; type: cell-based, Staphylococcus aureus; conditions: for Zone of inhibition: MRSA-171, 30 μg/tablet paper disc 6.35 mm, LB plate, 37° C., 24 h, ≥17 mm sensitive, 15-16 mm intermediary, ≤14 mm drug resistance
[2] = system: multi-resistant Staphylococcus aureus 596 (MRSA-596); test: Paper diffusion method drug sensitivity test, MRSA-596; type: cell-based; conditions: for Zone of inhibition: MRSA-596, 30 μg/tablet paper disc 6.35 mm, LB plate, 37° C., 24 h, ≥17 mm sensitive, 15-16 mm intermediary, ≤14 mm drug resistance
Procedure: as §1, §2, §3, §4, §5, §6

Row | Compound | Zone of inhibition [1] [mm] | inhibitory effect (in words) ([1]; multi-drug resistant Staphylococcus aureus 575, 30 μg/tablet) | inhibitory effect on drug-resistant bacteria (in words) (drug-resistant bacteria) | Zone of inhibition (MRSA-171) [mm] | inhibitory effect (in words) (MRSA-171; multi-drug resistant Staphylococcus aureus 171, 30 μg/tablet) | Zone of inhibition [2] [mm] | inhibitory effect (in words) ([2]; multi-drug resistant Staphylococcus aureus 596, 30 μg/tablet)
1 | C=C[C@]1(C)C[C@@H](OC(=O)COC(=O)c2ccccc2O)[C@]2(C)[C@H](C)CC[C@]3(CCC(=O)[C@H]32)[C@@H](C)[C@@H]1O | 10 | strong inhibitory effects | excellent antibacterial activity and anti-drug-resistant bacteria activity | 16 | strong inhibitory effects | 26 | strong inhibitory effects
2 | C=C[C@]1(C)C[C@@H](OC(=O)CO)[C@]2(C)[C@H](C)CC[C@]3(CCC(=O)[C@H]32)[C@@H](C)[C@@H]1O [Pleuromulin] | 0 |  | no inhibitory effect | 0 |  | 0 | 
3 | O=C(O)c1ccccc1O [Salicylic acid] | 0 |  | no inhibitory effect | 0 |  | 0 | 
4 | CN[C@H](CC(C)C)C(=O)N[C@H]1C(=O)N[C@@H](CC(N)=O)C(=O)N[C@H]2C(=O)N[C@H]3C(=O)N[C@H](C(=O)N[C@H](C(=O)O)c4cc(O)cc(O)c4-c4cc3ccc4O)[C@H](O)c3ccc(c(Cl)c3)Oc3cc2cc(c3O[C@@H]2O[C@H](CO)[C@@H](O)[C@H](O)[C@H]2O[C@H]2C[C@](C)(N)[C@H](O)[C@H](C)O2)Oc2ccc(cc2Cl)[C@H]1O [Vancomycin, vancomycin] | 17 |  |  | 15 |  | 23 | 
